Experimental data published in PubChem BioAssay AID1963962 (Molecular Pharmacology Branch, DTP, NCI, 2024).

Tested on: 967376-340-R-J2-PDC multicell spheroid viability
Test: Anticancer human tumor 967376-340-R-J2-PDC patient-derived colon adenocarcinoma cell line growth inhibition [PI3K]
Conditions: for viability, T/C: stronger effect = lower value
In short: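 Stroma-containing spheroids: tumor line, pooled-donor HUVEC, hMSC. Treatments: targeted agents with PI3K inhibitors. Dosing: clinically relevant, half-log spacing, 10 microM ceiling without known Cmax. Read-out: cell viability.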

[1] = curve of first compound, second compound 0.0316 µM
[2] = curve of first compound, second compound 0.1 µM
[3] = curve of first compound, second compound 0.316 µM
[4] = curve of first compound, second compound 1 µM
[5] = second compound 0.0316 µM, first compound 0.0316 µM
[6] = second compound 0.0316 µM, first compound 0.1 µM
[7] = second compound 0.0316 µM, first compound 0.316 µM
[8] = second compound 0.0316 µM, first compound 1 µM
[9] = second compound 0.0316 µM, first compound 3.16 µM
[10] = second compound 0.0316 µM, first compound 10 µM
[11] = second compound 0.1 µM, first compound 0.0316 µM
[12] = second compound 0.1 µM, first compound 0.1 µM
[13] = second compound 0.1 µM, first compound 0.316 µM
[14] = second compound 0.1 µM, first compound 1 µM
[15] = second compound 0.1 µM, first compound 3.16 µM
[16] = second compound 0.1 µM, first compound 10 µM
[17] = second compound 0.316 µM, first compound 0.0316 µM
[18] = second compound 0.316 µM, first compound 0.1 µM
[19] = second compound 0.316 µM, first compound 0.316 µM
[20] = second compound 0.316 µM, first compound 1 µM
[21] = second compound 0.316 µM, first compound 3.16 µM
[22] = second compound 0.316 µM, first compound 10 µM
[23] = second compound 1 µM, first compound 0.0316 µM
[24] = second compound 1 µM, first compound 0.1 µM
[25] = second compound 1 µM, first compound 0.316 µM
[26] = second compound 1 µM, first compound 1 µM
[27] = second compound 1 µM, first compound 3.16 µM
[28] = second compound 1 µM, first compound 10 µM
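Note: spheroids exposed to agents for 7 days before read-out.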
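Throughout, for viability, T/C: luminescence used as surrogate of cell viability.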

## CNC(=O)c1ccc(N2C(=S)N(c3ccc(C#N)c(C(F)(F)F)c3)C(=O)C2(C)C)cc1F + COc1c(OCCCN2CCOCC2)ccc2c3n(c(=NC(=O)c4cnc(N)nc4)nc12)CCN3
Curve of first compound, second compound 0.00316 µM
  IC50: > 10 µM
Curve of first compound, second compound 0.01 µM
  IC50: > 10 µM
[1]
  IC50: > 10 µM
[2]
  IC50: > 10 µM
[3]
  IC50: 0.388 µM
[4]
  IC50: < 0.0316 µM
Second compound 0.00316 µM, first compound 0.0316 µM
  viability, T/C: 92%
Second compound 0.00316 µM, first compound 0.1 µM
  viability, T/C: 90%
Second compound 0.00316 µM, first compound 0.316 µM
  viability, T/C: 73.3%
Second compound 0.00316 µM, first compound 1 µM
  viability, T/C: 93%
Second compound 0.00316 µM, first compound 3.16 µM
  viability, T/C: 113%
Second compound 0.00316 µM, first compound 10 µM
  viability, T/C: 102%
Second compound 0.01 µM, first compound 0.0316 µM
  viability, T/C: 90%
Second compound 0.01 µM, first compound 0.1 µM
  viability, T/C: 82.7%
Second compound 0.01 µM, first compound 0.316 µM
  viability, T/C: 65.7%
Second compound 0.01 µM, first compound 1 µM
  viability, T/C: 87.3%
Second compound 0.01 µM, first compound 3.16 µM
  viability, T/C: 105%
Second compound 0.01 µM, first compound 10 µM
  viability, T/C: 120%
[5]
  viability, T/C: 78%
[6]
  viability, T/C: 64.9%
[7]
  viability, T/C: 64.5%
[8]
  viability, T/C: 60.9%
[9]
  viability, T/C: 79.9%
[10]
  viability, T/C: 66%
[11]
  viability, T/C: 65.7%
[12]
  viability, T/C: 64.3%
[13]
  viability, T/C: 64.5%
[14]
  viability, T/C: 51%
[15]
  viability, T/C: 53.3%
[16]
  viability, T/C: 64.6%
[17]
  viability, T/C: 50.3%
[18]
  viability, T/C: 50.3%
[19]
  viability, T/C: 54.5%
[20]
  viability, T/C: 34.8%
[21]
  viability, T/C: 37.5%
[22]
  viability, T/C: 54.2%
[23]
  viability, T/C: 35%
[24]
  viability, T/C: 36.5%
[25]
  viability, T/C: 39.8%
[26]
  viability, T/C: 34.6%
[27]
  viability, T/C: 36.6%
[28]
  viability, T/C: 28.1%

## Cn1ncc(Cl)c1-c1cc(C(=O)NC(CN)Cc2cccc(F)c2)sc1Cl (centres undefined)
Compound 0.0316 µM
  viability, T/C: 107% [middle of 4 runs]
Compound 0.316 µM
  viability, T/C: 91.2% [middle of 4 runs]
Compound 3.16 µM
  viability, T/C: 81.3% [middle of 4 runs]
Compound 10 µM
  viability, T/C: 76.4% [middle of 4 runs]
Curve of compound
  IC50: > 10 µM

## C=CC(=O)N1CCN(c2nc(=O)n(-c3c(C)ccnc3C(C)C)c3nc(-c4c(O)cccc4F)c(F)cc23)C(C)C1 (centres undefined) + Cc1nc(NC(=O)N2CCCC2C(N)=O)sc1-c1ccnc(C(C)(C)C(F)(F)F)c1
[1]
  IC50: > 10 µM
[2]
  IC50: > 10 µM
[3]
  IC50: > 10 µM
[4]
  IC50: > 10 µM
Curve of first compound, second compound 3.16 µM
  IC50: > 10 µM
Curve of first compound, second compound 10 µM
  IC50: < 0.0316 µM
[5]
  viability, T/C: 85.5%
[6]
  viability, T/C: 85.2%
[7]
  viability, T/C: 86.6%
[8]
  viability, T/C: 84.6%
[9]
  viability, T/C: 91.7%
[10]
  viability, T/C: 102%
[11]
  viability, T/C: 91.9%
[12]
  viability, T/C: 85.8%
[13]
  viability, T/C: 75.6%
[14]
  viability, T/C: 84.6%
[15]
  viability, T/C: 100%
[16]
  viability, T/C: 74%
[17]
  viability, T/C: 73.3%
[18]
  viability, T/C: 74.5%
[19]
  viability, T/C: 62.5%
[20]
  viability, T/C: 94%
[21]
  viability, T/C: 91.3%
[22]
  viability, T/C: 69.8%
[23]
  viability, T/C: 65.5%
[24]
  viability, T/C: 65.7%
[25]
  viability, T/C: 57.3%
[26]
  viability, T/C: 66.6%
[27]
  viability, T/C: 66.1%
[28]
  viability, T/C: 76.5%
Second compound 3.16 µM, first compound 0.0316 µM
  viability, T/C: 61%
Second compound 3.16 µM, first compound 0.1 µM
  viability, T/C: 52.9%
Second compound 3.16 µM, first compound 0.316 µM
  viability, T/C: 64.4%
Second compound 3.16 µM, first compound 1 µM
  viability, T/C: 56.8%
Second compound 3.16 µM, first compound 3.16 µM
  viability, T/C: 77.7%
Second compound 3.16 µM, first compound 10 µM
  viability, T/C: 53.3%
Second compound 10 µM, first compound 0.0316 µM
  viability, T/C: 46.9%
Second compound 10 µM, first compound 0.1 µM
  viability, T/C: 44.7%
Second compound 10 µM, first compound 0.316 µM
  viability, T/C: 44.9%
Second compound 10 µM, first compound 1 µM
  viability, T/C: 56.3%
Second compound 10 µM, first compound 3.16 µM
  viability, T/C: 48.7%
Second compound 10 µM, first compound 10 µM
  viability, T/C: 42%
